Experimental data taken from patent US9357924B2, “Composition, method, system and kit for optical electrophysiology” (The Research Foundation of State University of New York, priority 2006, dated 2016).
Values joined by “and” are separate entries in the source; they are usually repeats but may differ in a detail not shown here. Equal values may be shown once.

What was measured:
[1] = system: pig cardiac tissue (right free ventricular wall); experiment: Optical action potential recording in Tyrode-perfused pig right ventricular wall preparation; conditions: for ΔF/F (relative fluorescence, maximal fluorescence efficacy): pig tissue, Tyrode-perfused, epifluorescence; for ΔF/F (relative fluorescence): pig, transillumination mode, thick cardiac tissue ~10 mm
Experimental: The dye testing experiments were performed on typical model animals: mice (n=6), rat (n=11), guinea pig (n=6), pig (n=13). All experimental protocols conformed to the Guide for the Care and Use of Laboratory Animals and were approved by the Committee for the Humane Use of Animal of the SUNY Upstate Medical University. Mice (C57BL/6, 20-25 g) were injected with ketamine (200 mg/kg IP), rats (Sprague Dawley, 300-400 g female) and guinea pigs were injected with heparin (550 U/100 g), and euthanized by sodium phentobarbital (1 ml/100 g for rats and 0.75 ml/100 g for guinea pigs). The heart was then immediately excised and placed in ice-cold cardioplegia solution (CPS) composed of (in mmol/l) 280 Glucose, 13.44 KCl, 12.6 NaHCO3, 34 Mannitol. After removal of extraneous tissues, the aorta was cannulated and Langendorff perfusion was started with a standard oxygenated Tyrode's solution (composed of (in mmol/l) 130 NaCl, 24 NaHCO3, 1.2 NaH2PO4, 1.0 MgCl2, 5.6 Glucose, 4.0 KCl, 1.8 CaCl2; buffered to a pH of 7.4) at 80 mm Hg and 36° C. Young pigs (15-20 kg,) were heparinized (500 IU, IV) and subsequently anesthetized with sodium phentobarbital (35 mg/kg IV). The heart was rapidly removed and Langendorff-perfused with cold (4° C.) CPS. The right free ventricular wall was quickly excised, and the right coronary artery was cannulated. Non-perfused tissue was removed, leaving a preparation of typically 5×5 cm and a thickness of 8 mm. The preparation was stretched on a plastic frame and perfused with a standard oxygenated Tyrode's solution at 80 mm Hg and 36° C. Whole cannulated heart (mouse, rat or guinea pig) or stretched pig tissue was put into special transparent chamber and superfused with the same solution at a rate of 30-40 ml/min. Perfusion and superfusion temperatures were continuously monitored and kept at 36±1° C. by using two sets of glass heating coils and heated-refrigerated circulators. Electrodes were sutured to whole hearts or inserted into pig tissue to monitor ECG. All preparations were continuously paced at the frequency 6.7 Hz, 5 Hz, 3.3 Hz and 2 Hz for mouse, rat, guinea pig, and pig, respectively.
After a 20-30 min stabilization period during which the perfusion flow and ECG was monitored, the excitation-contraction uncoupler diacetyl-monoxime (DAM) was added to the perfusate (15 mmol/l) to stop contractions of cardiac tissue. After a 20 minute equilibration, the preparation was stained by injecting voltage-sensitive dye solution into the perfusion flow (a bolus injection near cannula).
Solid dyes were dissolved in DMSO to make 10-50 mM stock solution that was kept frozen. […]

[2] = system: mouse heart cardiac tissue; experiment: Dye washout dynamics of OP amplitude in mouse heart; conditions: mean ± SD
Experimental: (§1) The dye testing experiments were performed on typical model animals: mice (n=6), rat (n=11), guinea pig (n=6), pig (n=13). All experimental protocols conformed to the Guide for the Care and Use of Laboratory Animals and were approved by the Committee for the Humane Use of Animal of the SUNY Upstate Medical University. Mice (C57BL/6, 20-25 g) were injected with ketamine (200 mg/kg IP), rats (Sprague Dawley, 300-400 g female) and guinea pigs were injected with heparin (550 U/100 g), and euthanized by sodium phentobarbital (1 ml/100 g for rats and 0.75 ml/100 g for guinea pigs). The heart was then immediately excised and placed in ice-cold cardioplegia solution (CPS) composed of (in mmol/l) 280 Glucose, 13.44 KCl, 12.6 NaHCO3, 34 Mannitol. […] Perfusion and superfusion temperatures were continuously monitored and kept at 36±1° C. by using two sets of glass heating coils and heated-refrigerated circulators. […]
(§2) The acquired images were offline processed to improve their quality. The background autofluorescence (endogenous fluorescence recorded under the same conditions before dye injection) was subtracted from each frame to obtain the voltage-dependent optical signal. To allow temporal alignment and subsequent averaging of successive paced action potentials, the trigger for the pacing stimulus was recorded as a single pixel in the movie frames. […]

[3] = Absorbance spectra in ethanol; format: physicochemical
Experimental: Absorbance spectra were measured in ethanol (panel A), and a model membrane made of multilamellar lipid vesicles (MLV) composed of egg phosphatidyl choline (panel B). The absorbance spectra reveal single maxima that represent a high level of the dye purity and absence of different configurational isomers. The absorption maxima for JPW6003 in ethanol occurred at 603 nm. For the dye JPW 6033 all absorption maxima are shifted 20-40 nm to shorter wavelengths, but absorbance is 2-3 times higher. Though the long wavelength absorbance peaks range from 561 nm to 603 nm in ethanol, and 526 nm to 539 nm in MLV, in practical applications both dyes can be efficiently excited over a much broader range (500-700 nm), allowing one to optimize excitation for the dye in different tissues, including blood perfused tissue.

rat heart cardiac tissue [4] = experiment: Optical action potential recording in Langendorff-perfused rat heart (Tyrode's solution); conditions: mean ± SD
Experimental: as §1
(§3) After a 20-30 min stabilization period during which the perfusion flow and ECG was monitored, the excitation-contraction uncoupler diacetyl-monoxime (DAM) was added to the perfusate (15 mmol/l) to stop contractions of cardiac tissue. […]

[5] = system: mouse heart cardiac tissue; experiment: Optical action potential recording in Langendorff-perfused mouse heart (Tyrode's solution); conditions: mean ± SD
Experimental: as §1, §3

[6] = system: guinea pig heart cardiac tissue; experiment: Dye washout dynamics of OP amplitude in guinea pig heart; conditions: mean ± SD
Experimental: as §1, §2

pig cardiac tissue = experiment: Dye washout dynamics of OP amplitude in pig cardiac tissue; conditions: mean ± SD
Experimental: as §1, §2

rat heart cardiac tissue [7] = experiment: Dye washout dynamics of OP amplitude in rat heart; conditions: mean ± SD
Experimental: as §1, §2

[8] = system: guinea pig heart cardiac tissue; experiment: Optical action potential recording in Langendorff-perfused guinea pig heart (Tyrode's solution); conditions: mean ± SD
Experimental: as §1, §3

blood-perfused pig heart = experiment: Optical mapping of blood-perfused Langendorff pig heart; conditions: for ΔF/F (relative fluorescence): blood perfusion
Experimental: Blood-perfused Langendorff preparation of pig heart was implemented. Briefly, approximately 1.5 liters of modified Tyrode's solution (37° C., composition in mmol/L: Na^+, 157; K^+, 4.7; Ca^2+, 1.5; Mg^2+, 0.7, H2PO4^−0.5, Cl^−137.6, HCO3^−28.0, glucose 11.0, dextran 4% and insulin 10 U) was infused in an external jugular vein, and blood-Tyrode's mixture was collected at equal rate from a carotid artery. The heart was perfused with blood-Tyrode mixture in a Langendorff apparatus. The blood-Tyrode mixture will be oxygenated (CO2 5%/02 95%), heated (37° C.) and filtered using a Liliput hollow fiber oxygenator (COBE Cardiovascular, Arvada, Co). Collector tubes were inserted into the right and left ventricles to collect all the blood coming out of the coronary sinus and Thebesian veins. Thereafter, the heart was “sealed” to ensure that all the outflow of perfused blood is collected for recirculation. The heart was placed in a warm bath with heated water-jacketed transparent glass wall and was superfused with an oxygenated, heated Tyrode solution. After a 20-30 min stabilization verified by a vigorous contraction and normal sinus rhythm, the excitation-contraction uncoupler diacetyl-monoxime (DAM) was added to the perfusate (15 mmol/l) to stop contractions. ECG was monitored throughout the experiment to ensure stable capture of the ventricles by the pacing electrode. […]
Blood-perfused pig heart imaging was done in a similar way. Briefly, the dye was excited with a 400-watt tungsten-halogen lamp (excitation filter, 650+/−20 nm) and the fluorescence was collected above 715 nm using a Computar objective lens (HG1208FCS_HSP, F0.8, focal length 12 mm,) and externally cooled CCD camera (Dalsa CA-D1-0128T, Ontario, Canada) at the frame rate of 400-800 fps and 12-bit resolution.
The acquired images were offline processed to improve their quality. The background autofluorescence (endogenous fluorescence recorded under the same conditions before dye injection) was subtracted from each frame to obtain the voltage-dependent optical signal. To allow temporal alignment and subsequent averaging of successive paced action potentials, the trigger for the pacing stimulus was recorded as a single pixel in the movie frames. […] Dye loading and washout dynamics were assessed from averaged sets of OP recordings (3-5 specimens). To facilitate comparison, fluorescence and OP signals were normalized to their peak values (defined as the difference between maximum and minimum values) in some figures.
For the dye loading dynamics, the time to reach peak values of background fluorescence (membrane voltage independent component of the dye molecules fluorescence), OP, and ΔF/F were determined by simple visual inspection of the dynamic plots. […]

various cardiac tissues = experiment: Dye performance in various cardiac tissues compared with di-4-ANEPPS; conditions: in any of the tested species
Experimental: as §1, with “Mannitol. After removal of extraneous tissues, the aorta was cannulated and Langendorff perfusion was started with a standard oxygenated Tyrode's solution (composed of (in mmol/l) 130 NaCl, 24 NaHCO3, 1.2 NaH2PO4, 1.0 MgCl2, 5.6 Glucose, 4.0 KCl, 1.8 CaCl2; buffered to a pH of 7.4) at 80 mm Hg and 36° C. Young pigs (15-20 kg,) were heparinized (500 IU, IV) and subsequently anesthetized with sodium phentobarbital (35 mg/kg IV).” for “Mannitol.”

[9] = Voltage-dependent fluorescence response in voltage-clamped hemispherical lipid bilayer (HLB) model membrane
Experimental: Voltage-dependent spectra in model membranes were measured by a voltage-clamped hemispherical lipid bilayer (HLB) apparatus modified for near infrared fluorescence detection. In this experiment, light from a tungsten lamp is sent through a monochromator and then focused onto the bottom of the HLB, stained with dye from the external aqueous bathing solution. The monochromator is then scanned over the wavelength range of interest while a train of ±50 mV voltage steps are applied to the membrane at a frequency of 40 Hz and the modulation of the detected light signal is measured with a lockin amplifier. The transmitted light signal is collected at 180° from the incident light. Fluorescence is collected at 90° via fiber optic light guide through cutoff filters at 715 nm.

Molecule	ΔF/F (relative fluorescence, maximal fluorescence efficacy) [1]	ΔF/F (relative fluorescence) [1]	50% washout time of OP amplitude [2]	absorption maxima (excitation wavelength) [3]	ΔF/F (relative fluorescence, maximal fluorescence efficacy) (rat heart cardiac tissue [4])	ΔF/F (relative fluorescence, maximal fluorescence efficacy) [5]	50% washout time of OP amplitude [6]	50% washout time of OP amplitude (pig cardiac tissue)	50% washout time of OP amplitude (rat heart cardiac tissue [7])	ΔF/F (relative fluorescence, maximal fluorescence efficacy) [8]	time of slow increase in total fluorescence and OP (dye loading) (blood-perfused pig heart; dye injected during recirculated-blood-perfusion)	ΔF/F (relative fluorescence) (blood-perfused pig heart; pig, Tyrode's-perfused loading)	ΔF/F (relative fluorescence) (blood-perfused pig heart; pig, blood-perfused loading (dye injected into blood flow))	steady-state level of deltaF/F during blood perfusion (blood-perfused pig heart; pig, regardless of loading in Tyrode's or directly into blood flow)	OP amplitude higher than that of di-4-ANEPPS (various cardiac tissues)	delta F/F (relative fluorescence) in a model membrane [9]
CCCCN(CCCC)c1ccc2cc(/C=C/C=C/c3cc[n+](CCC[N+](C)(C)C)c4ccccc34)ccc2c1.[Br-].[Br-] [JPW6003, Di-4-ANBDQPQ]	18.7% and 18.7 ± 1.1%	approximately 20%	1.4 ± 0.2 h	603 nm	11.1 ± 1.6%	9.1 ± 1.4%	2.80 ± 0.31 h	3.33 ± 0.31 h	2.50 ± 0.28 h	11.3 ± 1.0%	~1 h	12%	5.5 ± 1.5%	~5%	–	–
Di-4-ANBDQBS [JPW6033]	15 ± 1.0%	14 ± 1.1%	1.0 ± 0.1 h	–	14 ± 1.5%	10 ± 1.5%	2.0 ± 0.2 h	2.50 ± 0.28 h	1.8 ± 0.2 h	12.5 ± 1.4%	–	–	–	–	50-100%	–
CCCCN(CCCC)c1ccc2cc(/C=C/c3cc[n+](CCCS(=O)(=O)[O-])cc3)ccc2c1 [di-4-ANEPPS]	–	–	–	–	–	–	–	–	–	–	–	–	–	–	–	9%
